Test results from US20180318383A1, “PEPTIDE HAVING NEURONAL LOSS PREVENTION AND REGENERATION EFFECTS, AND COMPOSITION CONTAINING SAME” (GEMVAX & KAEL CO., LTD., priority 2015, published 2018).
Where no end group is shown, it is not given here.

How the values were obtained:
PI3K pathway = test: NSC survival after PI3K inhibitor LY294002 pre-treatment; assay type: cell-based, rat; conditions: 10 μM LY294002 pre-treatment, then 20 μM Aβ25-35 and 10 μM PEP1 for 48 hours
Experimental: To identify the role of the PI3K/AKT signaling system in the PEP1 mechanism, NSCs were treated with a PI3K inhibitor LY294002 for 1 hour before treatment of 50 μM PEP1 and 20 μM Aβ25-30. NSCs were divided into four groups as follows: control group (Group 1), group treated with 20 μM Aβ25-35 for 48 hours (Group 2), group treated with 20 μM Aβ25-35, as well as 50 μM PEP1, for 48 hours (Group 3), and group treated with 10 μM LY294002 and 20 μM Aβ25-35, as well as 50 μM PEP1, for 48 hours (Group 4). To investigate a PEP1 effect on nerve protection via a PI3K pathway induced by Aβ25-35 toxicity, NSCs were divided into four groups: control group (Group 1), group treated with 20 μM Aβ25-35 for 48 hours (Group 2), group treated with 20 μM Aβ25-35 and 10 μM PEP1 for 48 hours (Group 3), and group treated with 10 μM LY294002 for […], and then treated with 20 μM Aβ25-35 10 μM PEP1 for 48 hours (Group 4).

NSCs [1] = test: Cell viability of NSCs (CCK-8, MTT, LDH); assay type: cell-based, rat; conditions: NSCs, Aβ25-35 alone 0, 2.5, 5, 10, 20, 40 μM, 48 hours; CCK-8, MTT, LDH
Experimental: NSCs were isolated from the brain of a rat embryo, cultured and developed. The NSC culture was performed in the same manner as to be described below. Briefly describing, a rat embryo was obtained on day 13 of the embryonic period, and the brain was quickly removed and placed in a petri dish containing cold phosphate-buffered physiological saline (Hank's balanced salt solution; HBSS).
Single cells were isolated from the cerebral cortex, the lateral ganglion eminence, and the embryonic midbrain. These cells were put into a dish pre-treated with L-ornithine and fibronectin, containing calcium and magnesium-free phosphate-buffered physiological saline (PBS) at a density of 20,000 cells/cm^2. In addition, the cells were cultured in an N2 medium (DMEM F/12, […] insulin, 100 mg/L transferrin, 30 nM selenite, […], 20 nM progesterone, 0.2 mM ascorbic acid, […], 8.6 mM D(+) glucose, and […]). The culture was maintained in humidified and 5% CO2 conditions for 4 to 6 days at 37° C.
NSCs were divided into 6 samples, and each sample was treated with […] Aβ25-30 oligomers for 48 hours to identify a suitable concentration. […] Briefly, Aβ25-30 was dissolved in hexafluoroisopropanol to reach a concentration of 1 mM. In addition, the prepared solution was dispensed using a sterilized ultramicrocentrifuge tube. […]
To identify the PEP1 effect in NSCs, PEP1 was treated at various concentrations of 0, 1, 10, 50, 100, and 200 μM for 48 hours. […] The plate was gently washed with PBS several times, and cell viability was measured using a cell counting kit-8 (CCK-8), MTT and lactate dehydrogenase (LDH).
CCK-8 was used as a method for counting living cells by bonding 2-[2-methoxy-4-nitrophenyl]-3-[4-nitrophenyl]-5-[2,4-disulfophenyl]-2H-tetrazolium, monosodium salt (WST-8) with 1-methoxyphenazinium methylsulfate (PMS). […] Cell viability was evaluated by measuring absorbance at 450 nm. […] Cell viability was evaluated by measuring absorbance at 490 nm and reference absorbance at 690 nm. […]

NSCs [2] = test: NSC proliferation (BrdU and CFU assays); assay type: cell-based, rat; conditions: NSCs, Aβ25-35 alone 0-40 μM, 48 hours; BrdU and CFU
Experimental: NSCs were treated with different concentrations of PEP1 and 20 μM Aβ25-30 for 48 hours. Afterward, NSCs were cultured in bromodeoxyuridine (BrdU)-labeled media for 5 hours and observed using a kit. Cell division was evaluated by measuring absorbance at 370 nm and reference absorbance at 492 nm. All results were normalized based on a cell-free well.
A CFU assay was carried out by the following method. Briefly, 0.25×10^5 NSCs were plated in a 6-well plate, and treated with 20 μM Aβ25-30 and then with PEP1 at 1, 10 or 50 μM for 48 hours. The cells were washed with DPBS, and then the medium was exchanged with a fresh cell culture medium. Fourteen days later, the cells were washed again with DPBS, and stained with 0.5% crystal violet dissolved in methanol for 30 minutes at room temperature. Following staining, the plate was washed with DPBS and then dried. The number of colonies was observed using a stereoscopic microscope, and among these colonies, those smaller than 2 mm or faintly stained were removed.

[3] = Cell-free ROS production (DHBA level by HPLC); conditions: 20 μM Aβ25-35 and PEP1 0, 1, 10, 50 μM
Experimental: To investigate how Aβ25-30 and PEP1 influenced ROS, a DHBA level was measured and observed by a cell-free method. This method was carried out by observing the DHBA level in a tube containing 20 μM Aβ25-30 and each concentration of PEP1 (0, 1, 10 or 50 μM) through HPLC.

| Compound | survival ability of NSCs degraded, Group 4 compared to Group 3 (PI3K pathway) | cell survival ability (NSCs [1]) | proliferation (NSCs [2]) | ROS production under a cell-free condition [3] |
| --- | --- | --- | --- | --- |
| O=c1cc(N2CCOCC2)oc2c(-c3ccccc3)cccc12 [LY294002] | approximately 16% |  |  |  |
| Aβ25-35: β-Amyloid 25-35 oligomers used to induce neurotoxicity in NSCs (GSNKGAIIGLM; also: used as oligomers; UniProt P05067 696-706, looked up, fragment) [reference compound] |  | significantly reduced in a concentration-dependent method | significantly reduced in a concentration-dependent method | did not exhibit a significant influence |
